Assay results from patent US20210094954A1, “PREPARATION METHODS AND APPLICATIONS OF 3,5-DISUBSTITUTED METHYLPYRAZOLO[1,5-A]PYRIMIDINE-7-HYDROXYLIC SALTS” (priority 2019, published 2021).
Like-named read-outs stand apart in the source and are kept apart here.

What was measured:
Diphtheria bacilli = experiment: organism not typed; format: cell-based; conditions: 37° C., 24 hours; read-out: MIC values of in vitro antibacterial test results
Oral Candida = experiment: microbe, parasite or virus in culture; format: cell-based; conditions: Candida
Bacillus cereus 2 = experiment: microbe, parasite or virus in culture; format: cell-based; conditions: Bacillus cereus, 2; 37° C., 24 hours; read-out: MIC values of in vitro antibacterial test results
Peel fungus = experiment: organism not typed; format: cell-based; conditions: 37° C., 24 hours; read-out: MIC values of in vitro antibacterial test results
[1] = test system: Streptococcus pneumoniae 10351; experiment: microbe, parasite or virus in culture; format: cell-based; conditions: Streptococcus pneumoniae, 10351; 37° C., 24 hours; read-out: MIC values of in vitro antibacterial test results
Bacillus subtilis 168 = experiment: microbe, parasite or virus in culture; format: cell-based; conditions: Bacillus subtilis, 168; 37° C., 24 hours; read-out: MIC values of in vitro antibacterial test results
Clostridium perfringens = experiment: microbe, parasite or virus in culture; format: cell-based; conditions: Clostridium perfringens, 24 h, read-out: MIC values of in vitro antibacterial test results
[2] = test system: F2518(VRE), Staphylococcus aureus resistant strain 43300(MRSA), 703 (MRSA), pneumococcal resistance bacteria 6303(PRSP); experiment: microbe, parasite or virus in culture; format: cell-based; conditions: read-out: MIC values (μM)
[3] = test system: Enterococcus faecalis F2518(VRE); experiment: microbe, parasite or virus in culture; format: cell-based; conditions: Enterococcus faecalis, VRE, 24 h, read-out: MIC values of in vitro antibacterial test results
[4] = test system: Enterococcus faecalis 29212; experiment: microbe, parasite or virus in culture; format: cell-based; conditions: Enterococcus faecalis, 29212; 37° C., 24 hours; read-out: MIC values of in vitro antibacterial test results
[5] = test system: Staphylococcus aureus 43300 (MRSA); experiment: antibacterial study in vivo, survival of infected kunming mice; conditions: 30 days of observation
[6] = test system: Streptococcus pneumoniae M2; experiment: microbe, parasite or virus in culture; format: cell-based; conditions: Streptococcus pneumoniae, M2; 37° C., 24 hours; read-out: MIC values of in vitro antibacterial test results
[7] = test system: Streptococcus agalactia B group; experiment: microbe, parasite or virus in culture; format: cell-based; conditions: Streptococcus; 37° C., 24 hours; read-out: MIC values of in vitro antibacterial test results
[8] = test system: Bacillus anthracis Bacillus 1; experiment: microbe, parasite or virus in culture; format: cell-based; conditions: Bacillus anthracis, 24 h, read-out: MIC values of in vitro antibacterial test results
[9] = test system: Streptococcus pneumoniae 6303 (PRSP); experiment: microbe, parasite or virus in culture; format: cell-based; conditions: Streptococcus pneumoniae, PRSP, 24 h, read-out: MIC values of in vitro antibacterial test results
[10] = test system: Staphylococcus aureus 703(MRSA); experiment: microbe, parasite or virus in culture; format: cell-based; conditions: Staphylococcus aureus, MRSA
[11] = test system: Staphylococcus aureus 29231; experiment: microbe, parasite or virus in culture; format: cell-based; conditions: Staphylococcus aureus, 29231; 37° C., 24 hours; read-out: MIC values of in vitro antibacterial test results
[12] = test system: Staphylococcus aureus 43300(MRSA); experiment: microbe, parasite or virus in culture; format: cell-based; conditions: Staphylococcus aureus, MRSA
[13] = 37° C., 24 hours, read-out: MIC values of in vitro antibacterial test results
[14] = 24 h, read-out: MIC values of in vitro antibacterial test results

| Compound | MIC (Diphtheria bacilli) | MIC (Oral Candida; [13]) | MIC (Bacillus cereus 2) | MIC (Peel fungus) | MIC [1] | MIC (Bacillus subtilis 168) | MIC (Clostridium perfringens) | MIC [2] | MIC [3] | MIC [4] | Survival days ([5]; dosage 25 mg/kg) | MIC [6] | MIC [7] | MIC [8] | MIC [9] | MIC [10, 14] | MIC [11] | MIC [12, 14] | further results |
| --- | --- | --- | --- | --- | --- | --- | --- | --- | --- | --- | --- | --- | --- | --- | --- | --- | --- | --- | --- |
| Cc1nn2c([O-])cc(-c3ccc(Oc4ccccc4)cc3)nc2c1-c1ccc(F)cc1F.[Na+] [Compound 10, Sodium 3-(2,4-difluorophenyl)-2-methyl-5-(4-phenoxyphenyl)pyrazolo[1,5-α]pyrimidin-7-olate] | > 150 µg/mL | < 150 µg/mL | < 100 µg/mL | < 150 µg/mL | < 100 µg/mL | < 100 µg/mL | > 150 µg/mL | < 100 µg/mL | < 150 µg/mL | < 100 µg/mL | 3.5 days | < 150 µg/mL | < 150 µg/mL | > 150 µg/mL | < 150 µg/mL | < 100 µg/mL | < 100 µg/mL | < 150 µg/mL |  |
| Cc1nn2c([O-])cc(-c3ccc(S(N)(=O)=O)cc3)nc2c1-c1ccc(F)cc1F.[Na+] [Compound 9, Sodium 3-(2,4-difluorophenyl)-2-methyl-5-(4-sulfamoylphenyl)pyrazolo[1,5-α]pyrimidin-7-olate] | > 150 µg/mL | < 100 µg/mL | < 150 µg/mL | > 150 µg/mL | < 100 µg/mL | < 100 µg/mL | > 150 µg/mL | < 100 µg/mL | < 150 µg/mL | < 100 µg/mL | 3.0 days | < 100 µg/mL | < 150 µg/mL | > 150 µg/mL | < 150 µg/mL | < 100 µg/mL | < 100 µg/mL | < 100 µg/mL | MIC (Oral Candida; read-out: MIC values (μM)): < 100 µg/mL |
| Cc1nn2c([O-])cc(-c3ccc([N+](=O)[O-])cc3)nc2c1-c1ccc(F)cc1F.[Na+] [Compound 3, Sodium 3-(2,4-difluorophenyl)-2-methyl-5-(4-nitrophenyl) pyrazolo[1,5-α]pyrimidin-7-olate] | > 150 µg/mL | > 150 µg/mL | < 100 µg/mL | > 150 µg/mL | < 100 µg/mL | < 100 µg/mL | > 150 µg/mL | < 100 µg/mL | < 150 µg/mL | < 100 µg/mL |  | < 100 µg/mL | > 150 µg/mL | > 150 µg/mL | < 100 µg/mL | < 50 µg/mL | < 100 µg/mL | < 50 µg/mL | Survival days ([5]; dosage 30 mg/kg): 4.0 days; MIC ([10]; read-out: MIC values (μM)): < 50 µg/mL; MIC ([12]; read-out: MIC values (μM)): < 50 µg/mL |
